Measured values: paper PMC10289085, “The cytotoxicity effect of 7-hydroxy-3,4-dihydrocadalene from Heterotheca inuloides and semisynthetic cadalenes derivates towards breast cancer cells: involvement of oxidative stress-mediated apoptosis” (PeerJ, 2023)
“Also recorded” adds a separate entry of the source.

Experiments:
[1] = test system: MCF7 human breast cancer cells; test: MTT assay: cell viability; type: cell-based; details: for MCF7 cell viability: 0.1 to 100 µM, 24, 48 and 72 h; for IC50: MCF7, MTT
Procedure: MCF7 (#HTB-22) cell line, derived from human breast adenocarcinoma, was obtained from the American Type Culture Collection (ATCC®, Manassas, VA, USA). It was maintained under standard conditions: RPMI-1640, 2.0 g/L NaHCO3, supplemented with 10% FBS and gentamicin […].
(§1) Cells were treated with isolated compounds (0.1, 1, 5, 10, 25, 50 and 100 µM) for 24, 48 and 72 h. After treatments, culture media was replaced by MTT (100 μL) dissolved in RPMI media (0.33 mg/mL final concentration) per well and incubated at 37 °C with 5% CO2 for 1 h in dark. After incubating, supernatant was removed and replaced with DMSO to dissolve formazan crystals. Absorbance value was measured in a microplate reader (SPECTROstar Nano; BMG Labtech, Ortenberg, Germany) at 570 nm. IC25 and IC50 values were determined using GraphPad Prism 7.00 (GraphPad Software, La Jolla, CA, USA). Percentage of cell viability was calculated in comparison with control cells ([Mosmann, 1983]).

MCF7 cells [2] = test: Cell morphology (Cytation 5 imaging); type: cell-based, human; details: MCF7, 48 h; compound at IC50, H2O2 1 mM
MCF7 cell line = test system: MCF7 cell line; design: method as in Rodríguez-Chávez et al. (2015b); details: ref Rodríguez-Chávez et al. (2015b); cited from earlier work
MCF7 cells [3] = test: Wound-healing assay: cell migration; type: cell-based, human; details: IC50 (55.24 μM), 24, 48 and 72 h
Procedure: Wound areas were monitored at four different times (0, 24, 48, and 72 h) using the Cytation 5 cell imager (BioTek Instruments, Inc., Winooski, VT, USA). To determine the migration rate of the cells, the wound areas were quantified using the ImageJ software, ([Schneider, Rasband & Eliceiri, 2012]). The variation between the percentage of cell migration (as a function of time) was calculated using the following formula:
%Migration=100−[(Areaofinjurytimet/Areaofinjurytimezero)(100)]

[4] = test system: lipid peroxidation in MCF7 cells; test: TBARS assay: lipid peroxidation; type: cell-based, human; details: MCF7, 48 h
Procedure: (§2) Mechanical scraping was employed to collect adherent MCF7 cells after treatments. Then, cells were centrifugated (1,500 rpm for 5 min at 37 °C) and supernatants were removed. Pellets were lyzed adding lysis buffer (25 mM TrisHCl, pH 7.4, 150 mM NaCl, 1 mM EDTA, 0.1% Triton X-100, 1 mg/mL leupeptin, 0.5 mM PMSF and 1 mg/mL pepstatin) and put on ice for 20 min. Finally, cell lysates were centrifugated (2,500 rpm for 10 min at 4 °C) and supernatants were collected to following assays.
Total protein concentrations were measured as described by [Smith et al. (1985)]. BCA/CuSO4 reactive solution (1:20) was added to each cell lysates and incubated in the dark for 30 min at 37 °C. Absorbance was measured with a SPECTROstar Nano microplate reader (BMG Labtech, Ortenberg, Germany) at a wavelength of 550 nm.
Lipid peroxidation was measured colorimetrically as described by [Uchiyama & Mihara (1978)]. Cell pellets, stored at −80 °C, were thawed at room temperature and then, they were homogenized in thiobarbituric acid reactive substances (TBARS) solution (28.2 mM 2-TBA in 18.5 mL of TCA 16%-HCl 0.27 N). Then, the mixtures were heated for 10 min at 100 °C, and subsequently cooled in ice to stop the reaction. Supernatants of each sample were separated by centrifugation (3,000 rpm for 10 min at 4 °C) and immediately loaded into a SPECTROstar Nano microplate reader (BMG Labtech, Ortenberg, Germany) for absorbance measurement at 530 nm. TBARS values were expressed as nmol/mg protein.

caspase 3 = test: Immunoblotting of caspase 3; type: cell-based, human; details: MCF7, 48 h; compound at IC50 concentration, H2O2 1.0 mM
Procedure: (§3) Western blot assays were performed using standard techniques. Primary antibodies were anti-caspase-3, Bcl-2 and GAPDH from Santa Cruz Biotechnology (Santa Cruz Biotechnology, Inc., Dallas, TX, USA). The secondary antibody was anti-rabbit IgG, HRP-linked (Antibody #7074; Cell Signaling Technology, Danvers, MA, USA).

Bcl-2 = test: Immunoblotting of Bcl-2; type: cell-based, human; details: MCF7, 48 h, IC50 and IC50/2
Procedure: as §3

[5] = test system: mitochondrial respiration of MCF7 cells; test: Cell respirometry (high resolution, O2k); type: cell-based, human; details: MCF7, IC50, 48 h
Procedure: The oxygen consumption experiments were performed using a high resolution respirometry equipment O2k meter (Oroboros Instruments, Innsbruck, Austria) described by [Aparicio-Trejo et al. (2019)]. The respiratory parameters were defined as: (A) Routine respiration, corresponding to oxygen consumption in presence only of cells in culture medium. (B) Leak of the respiration, corresponding to cellular oxygen consumption in presence of 15 μM oligomycin. (C) RCI corresponding to the ratio basal/leak. (D) Respiration attributable to OXPHOS (P) corresponding to: Routine-Leak. All parameters were corrected by subtracting non-mitochondrial respiration resulting from the addition of 15 μM rotenone and 15 μM antimycin A and normalized by cells number.

MCF7 cells [6] = test: Trypan blue dye exclusion assay: cell proliferation; type: cell-based, human; details: IC50 (55.24 μM)
Procedure: Cells were trypsinized, centrifuged and stained with trypan blue dye (0.4% w/v in PBS). The number of viable cells and dead cells were counted on a Neubauer hemocytometer under an inverted microscope. The percentage of cell proliferation was calculated by comparing with control cells.

caspase-9 = test: Caspase-9 activity assay (fluorometric, cell lysates); type: cell-based, human; details: MCF7, 48 h; for Caspase 9 activity compared to control cells: compound at IC50, H2O2 1.0 mM
Procedure: as §2
(§4) Fluorometric assays of caspase-3 and caspase-9 enzymes were performed in accordance with the instructions provided by ALEXIS Biochemicals kits (Enzo Life Sciences Inc., San Diego, CA, USA). This enzymatic assay was based on hydrolysis of the peptide substrates of caspases-3/9 (Ac-DEVD 20 μM and Ac-LEHD 20 μM, respectively) conjugated to a fluorochrome (7-amido-4-methylcoumarin or AMC) at the terminal carbon of Asp, resulting in the release of the fluorescent motif. Cell lysates (20 μg) were used for each treatment. After incubation for 1 h at 37 °C, fluorescence was determined using a FLx800 microplate reader at excitation and emission wavelengths of 380 and 460 nm, respectively.

HEK 293 cells = test: MTT assay: cell viability in non-tumoral control cells; type: cell-based, human; details: non-tumoral cells from kidney, 72 h
Procedure: HEK 293 (CRL-1573) cell line, human embryonic kidney, was obtained from ATCC® (Manassas, VA, USA). It was grown in DMEM medium (Caisson Laboratories, Inc., Smithfield, UT, USA) with 10% v/v phenol red of inactivated FBS, 44 mM NaHCO3, 1 mM sodium pyruvate and penicillin 100 I.U.−100 μg/mL streptomycin−25 ng/mL amphotericin B, pH 7.4. Both cell lines were incubated at 37 °C and 5% CO2.
as §1

caspase-3 = test: Caspase-3 activity assay (fluorometric, cell lysates); type: cell-based, human; details: MCF7, 48 h
Procedure: as §2, §4

[7] = test system: intracellular ROS in MCF7 cells; test: DCFH-DA assay: intracellular ROS detection; type: cell-based, human; details: compound at IC50 concentration, H2O2 1 mM
Procedure: Intracellular ROS were detected by fluorescent compound DCFH-DA. Cells were treated with 1.0 mM H2O2, IC50 (55.2 μM) and IC50/2 (27.6 μM) of 7-hydroxy-3,4-dihydrocadalene for 48 h. Then, culture media was replaced with DCFH-DA (20 μM dissolved in glucose 1.8 mg/mL PBS) per well and incubated in the dark for 30 min. DCF fluorescence intensity was measured using an FLx800 microplate fluorescence reader (Bio-Tek Instruments, Inc., Winooski, VT, USA) at 480 and 530 nm excitation and emission wavelengths, respectively ([LeBel, Ischiropoulos & Bondy, 1992]).

[8] = compound at IC50 concentration, H2O2 1.0 mM

CC1=CC[C@H](C(C)C)c2cc(C)c(OC(=O)Nc3ccccc3)cc21 [7-(phenylcarbamate)-3,4-dihydrocadalene]
MCF7 cell viability ([1]; MTT): did not show a clear trend of MCF7 cell viability reduction; also recorded: lower or null cytotoxic potential; also recorded: not cytotoxic

Cc1cc2c(C(C)C)ccc(C)c2cc1OC(=O)Nc1ccccc1 [7-(phenylcarbamate)-cadalene]
MCF7 cell viability ([1]; MTT): lower or null cytotoxic potential; also recorded: not cytotoxic | MCF7 cell growth ([1]; MTT, 10 and 50 µM at 72 h of exposure): slightly inhibited MCF7 cell growth

CC1=CC[C@H](C(C)C)c2cc(C)c(O)cc21 [7-hydroxy-3,4-dihydrocadalene]
Cell morphology (MCF7 cells [2]): morphological changes (cells are rounded off, adhesion capacity decreases, and membrane is blebbing) were observed | IC50 (MCF7 cell line): 61.4 µM | MCF7 migration (MCF7 cells [3]): significantly inhibits MCF7 migration | Lipid peroxidation levels (TBARS) ([4]; IC50/2): 0.23 nmol/mg protein | Lipid peroxidation levels (TBARS) [4, 8]: 0.52 nmol/mg protein | Expression of caspase 3 (Western blot) (caspase 3): more evident | IC50 ([1]; Homo sapiens, 48 h): 55.2 µM | IC50 ([1]; Homo sapiens, 72 h): 52.8 µM | MCF7 cell viability ([1]; MTT): reduced MCF7 cell viability in a concentration and time-dependent manner | Bcl-2 levels (Western blot) (Bcl-2): Slightly differences of Bcl-2 levels were observed but not significant | RCI [5]: slightly reduction | Cell proliferation (MCF7 cells [6]): significantly reduced cell proliferation in a concentration and time dependent manner | Caspase 9 activity (caspase-9; IC50/2 concentration): no effect | Caspase 9 activity compared to control cells (caspase-9): 118.42% | Effect on HEK 293 cell viability (HEK 293 cells): without effect | Caspase 3 activity (caspase-3; IC50/2 concentration): no effect | Intracellular ROS levels compared to control cells [7]: 182%

CC/C(=C(\c1ccc(O)cc1)c1ccc(OCCN(C)C)cc1)c1ccccc1 [(Z)-4-hydroxytamoxifen, reference compound]
IC50 ([1]; 24 h, positive control): 16.5 µM

OO [H2O2, hydrogen peroxide, reference compound]
Cell morphology (MCF7 cells [2]): morphological changes (cells are rounded off, adhesion capacity decreases, and membrane is blebbing) were observed | Lipid peroxidation levels (TBARS) [4, 8]: 0.24 nmol/mg protein | Expression of caspase 3 (Western blot) (caspase 3): increased | Caspase 9 activity compared to control cells (caspase-9): 115.08% | Caspase 3 activity compared to control cells (caspase-3; compound at IC50, H2O2 1.0 mM): 136.25% | Intracellular ROS levels compared to control cells [7]: 194.9%
